Measurements published in patent US20170253607A1, “LONG-ACTING HIV PROTEASE INHIBITOR” (Shionogi & Co., Ltd., priority 2014, published 2017).

target: HIV-1 PR (Human immunodeficiency virus type 1 group M subtype B, UniProt P04585); assay: HIV-protease inhibitory activity assay (FRET peptide substrate); assay type: biochemical; settings: Test Example 1
Method in brief: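 Fluorescence recovery at ex 485/em 535 nm reports cleavage of a quenched FRET peptide (2 μmol/L final) by 0.83 ng enzyme over 60 minutes at room temperature. Buffer was NaAc pH 4.8 with NaCl, EDTA, DTT and Tween 20. IC50 values came from four-parameter logistic regression of % inhibition.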

With `COc1ccc(S(=O)(=O)N(CC(C)C)CC(O)C(Cc2ccc(N(C)Cc3ccncc3-c3sc4c(c3C(=O)O)CC(C)(C)CC4)cc2)NC(=O)OC2COC3(C)OCCC23)cc1` (stereo not drawn) [Compound I-489] as the molecule, how does the IC50 read?
The IC50 was 1.81 nM.

For `CC(C)CN(CC(O)C(Cc1ccc(OCc2sc(Oc3ccccc3)nc2C(=O)O)cc1)NC(=O)OC1COC2OCCC12)S(=O)(=O)c1ccc2ncsc2c1` (stereo not drawn) [Compound I-818], which IC50 is on record?
Its IC50 is 0.64 nM.

Which IC50 does the source give for `COc1ccc(S(=O)(=O)N(CC(C)C)CC(O)C(Cc2ccc(NCC3CC(C)(C)CCC3c3sc4c(c3C(=O)O)CC(C)(C)CC4)cc2)NC(=O)OC2COC3(C)OCCC23)cc1` (stereo not drawn) [Compound I-764] here?
Its IC50 is 2.81 nM.

`COc1ccc(S(=O)(=O)N(CC(C)C)CC(O)C(Cc2ccc(OC3CCC(c4sc5c(c4C(=O)O)CC(C)(C)CC5)CC3)cc2)NC(=O)OC2COC3(C)OCCC23)cc1` (stereo not drawn) [Compound I-203] was tested. Which IC50 did it give?
Its IC50 is 5.02 nM.

For `COc1ccc(S(=O)(=O)N(CC(C)C)CC(O)C(Cc2ccc(OCc3ccccc3-c3sc(-c4ccccc4)cc3C(=O)O)cc2)NC(=O)OC2COC3OCCC23)cc1` (stereo not drawn) [Compound I-848], which IC50 is on record?
Its IC50 is 0.89 nM.

`CC(C)CN(CC(O)C(Cc1ccc(NCc2cc(C(F)(F)F)ccc2-c2sc3c(c2C(=O)O)CC(C)(C)CC3)cc1)NC(=O)OC1COC2OCCC12)S(=O)(=O)c1ccc2c(c1)OCO2` (stereo not drawn) [Compound I-874] was tested. Which IC50 did it give?
Its IC50 is 5.12 nM.

How did the IC50 turn out when `COc1ccc(S(=O)(=O)N(CC(C)C)CC(O)C(Cc2ccc(N(C)Cc3cc(C(F)(F)F)ccc3C(=O)Nc3sc4c(c3C(=O)O)CC(C)(C)CC4)cc2)NC(=O)OC2COC3(C)OCCC23)cc1` (stereo not drawn) [Compound I-734] was run?
Its IC50 is 15.4 nM.

For `COc1ccc(S(=O)(=O)N(CC(C)C)CC(O)C(Cc2ccc(OCCNC(=O)c3cc(Cl)ccc3O)cc2)NC(=O)OC2COC3(C)OCCC23)cc1` (stereo not drawn) [Compound I-170], which IC50 is on record?
The IC50 was 0.91 nM.

How did the IC50 turn out when `COc1ccc(S(=O)(=O)N(CC(C)C)CC(O)C(Cc2ccc(N(C)Cc3cc(C(F)(F)F)ccc3-n3nc(C(=O)O)c4c3CCC(C)(C)C4)cc2)NC(=O)OC2COC3(C)OCCC23)cc1` (stereo not drawn) [Compound I-447] was run?
The IC50 was 2.37 nM.

How did the IC50 turn out when `COc1ccc(S(=O)(=O)N(CC(C)C)CC(O)C(Cc2ccc(N(CCCCc3ccccc3)Cc3ccccc3-c3sc4c(c3C(=O)O)CC(C)(C)CC4)cc2)NC(=O)OC2COC3(C)OCCC23)cc1` (stereo not drawn) [Compound I-432] was run?
The IC50 was 8.42 nM.

With `COc1ccc(S(=O)(=O)N(CC(C)C)CC(O)C(Cc2ccc(N3CC(Oc4cc5ccccc5cc4C(=O)Nc4sc5c(c4C(=O)O)CC(C)(C)CC5)C3)cc2)NC(=O)OC2COC3(C)OCCC23)cc1` (stereo not drawn) [Compound I-671] as the molecule, how does the IC50 read?
The IC50 was 34.8 nM.

`COc1ccc(S(=O)(=O)N(CC(C)C)CC(O)C(Cc2ccc(N(C)Cc3ccccc3-c3c(C(=O)O)c4ccccc4n3C)cc2)NC(=O)OC2COC3(C)OCCC23)cc1` (stereo not drawn) [Compound I-412] was tested. Which IC50 did it give?
Its IC50 is 1.51 nM.

With `COc1ccc(S(=O)(=O)N(CC(C)C)CC(O)C(Cc2ccc(C(=O)NCc3ccccc3-c3sc4c(c3C(=O)O)CC(C)(C)CC4)cc2)NC(=O)OC2COC3(C)OCCC23)cc1` (stereo not drawn) [Compound I-263] as the molecule, how does the IC50 read?
The IC50 was 3.41 nM.

With `COc1ccc(S(=O)(=O)N(CC(C)C)CC(O)C(Cc2ccc(OCc3cnn(-c4ccccc4)c3-c3sc4c(c3C(=O)O)CC(C)(C)CC4)cc2)NC(=O)OC2COC3(C)OCCC23)cc1` (stereo not drawn) [Compound I-185] as the molecule, how does the IC50 read?
Its IC50 is 1.71 nM.

`COc1ccc(S(=O)(=O)N(CC(C)C)CC(O)C(Cc2ccc(NCc3cc(Oc4cccc5cccnc45)ccc3-c3sc4c(c3C(=O)O)CC(C)(C)CC4)cc2)NC(=O)OC2COC3(C)OCCC23)cc1` (stereo not drawn) [Compound I-684] was tested. Which IC50 did it give?
Its IC50 is 2.83 nM.

Which IC50 does the source give for `COc1ccc(S(=O)(=O)N(CC(C)C)CC(O)C(Cc2ccc(OCC3CCN(c4ccc(C#N)cc4-c4sc5c(c4C(=O)O)CC(C)(C)CC5)CC3)cc2)NC(=O)OC2COC3(C)OCCC23)cc1` (stereo not drawn) [Compound I-325] here?
The IC50 was 31.7 nM.

With `COc1ccc(S(=O)(=O)N(CC(C)C)CC(O)C(Cc2ccc(N3CCC(Cc4ccccc4-c4sc5c(c4C(=O)O)CC(C)(C)CC5)C3)cc2)NC(=O)OC2COC3(C)OCCC23)cc1` (stereo not drawn) [Compound I-667] as the molecule, how does the IC50 read?
The IC50 was 7.95 nM.

How did the IC50 turn out when `COc1ccc(S(=O)(=O)N(CC(C)C)CC(O)C(Cc2ccc(N(C)Cc3ccccc3C(=O)N(C)c3sc4c(c3C(=O)O)CC(C)(C)CC4)cc2)NC(=O)OC2COC3(C)OCCC23)cc1` (stereo not drawn) [Compound I-590] was run?
The IC50 was 2.82 nM.

For `COc1ccc(S(=O)(=O)N(CC(C)C)CC(O)C(Cc2ccc(NCC3CC(C)(C)CC3c3sc4c(c3C(=O)O)CC(C)(C)CC4)cc2)NC(=O)OC2COC3OCCC23)cc1` (stereo not drawn) [Compound I-883], which IC50 is on record?
Its IC50 is 2.15 nM.

With `COc1ccc(S(=O)(=O)N(CC(C)C)CC(O)C(Cc2ccc(NCc3ccc(C(=O)N(C)C)cc3-c3sc4c(c3C(=O)O)CC(C)(C)CC4)cc2)NC(=O)OC2COC3(C)OCCC23)cc1` (stereo not drawn) [Compound I-417] as the molecule, how does the IC50 read?
The IC50 was 1.64 nM.

Which IC50 does the source give for `COc1ccc(S(=O)(=O)N(CC(C)C)CC(O)C(Cc2ccc(OCc3cccc(OC)c3-c3sc4c(c3C(=O)O)CC(C)(C)CC4)cc2)NC(=O)OC2COC3(C)OCCC23)cc1` (stereo not drawn) [Compound I-186] here?
Its IC50 is 2.14 nM.

For `COc1ccc(S(=O)(=O)N(CC(C)C)CC(O)C(Cc2ccc(OCc3ccccc3-c3sc4c(c3C(=O)O)CCC(=O)C4)cc2)NC(=O)OC2COC3OCCC23)cc1` (stereo not drawn) [Compound I-833], which IC50 is on record?
The IC50 was 1.54 nM.

Which IC50 does the source give for `COc1ccc(S(=O)(=O)N(CC(C)C)CC(O)C(Cc2ccc(NCc3nc(-c4sc5c(c4C(=O)O)CC(C)(C)CC5)cs3)cc2)NC(=O)OC2COC3(C)OCCC23)cc1` (stereo not drawn) [Compound I-289] here?
The IC50 was 2.4 nM.

`COc1ccc(S(=O)(=O)N(CC(C)C)CC(O)C(Cc2ccc(NCc3cc(C(F)(F)F)ccc3-c3sc4c(c3C(=O)O)CC(C)(C)CC4)cc2)NC(=O)OC2COC3OCCC23)cc1` (stereo not drawn) [Compound I-868] was tested. Which IC50 did it give?
Its IC50 is 4.3 nM.

`COc1ccc(S(=O)(=O)N(CC(C)C)CC(O)C(Cc2ccc(NCC3CC(C)(C)CC3c3sc4c(c3C(=O)O)CC(C)(C)CC4)cc2)NC(=O)OC2COC3(C)OCCC23)cc1` (stereo not drawn) [Compound I-735] was tested. Which IC50 did it give?
The IC50 was 1.56 nM.

With `COc1ccc(S(=O)(=O)N(CC(C)C)CC(O)C(Cc2ccc(N(CCC(C)(C)C)Cc3ccccc3-c3sc4c(c3C(=O)O)CC(C)(C)CC4)cc2)NC(=O)OC2COC3(C)OCCC23)cc1` (stereo not drawn) [Compound I-459] as the molecule, how does the IC50 read?
The IC50 was 18.4 nM.

`COc1ccc(S(=O)(=O)N(CC(C)C)CC(O)C(Cc2ccc(NC3c4ccccc4C(=O)N3c3sc4c(c3C(=O)O)CC(C)(C)CC4)cc2)NC(=O)OC2COC3(C)OCCC23)cc1` (stereo not drawn) [Compound I-536] was tested. Which IC50 did it give?
Its IC50 is 2.1 nM.

`COc1ccc(S(=O)(=O)N(CC(C)C)CC(O)C(Cc2ccc(NCc3ccc(-c4sc5c(c4C(=O)O)CC(C)(C)CC5)o3)cc2)NC(=O)OC2COC3(C)OCCC23)cc1` (stereo not drawn) [Compound I-288] was tested. Which IC50 did it give?
The IC50 was 2.19 nM.

`COc1ccc(S(=O)(=O)N(CC(C)C)CC(O)C(Cc2ccc(NCc3cc(C)ccc3NC(=O)c3sc4c(c3C(=O)O)CC(C)(C)CC4)cc2)NC(=O)OC2COC3(C)OCCC23)cc1` (stereo not drawn) [Compound I-610] was tested. Which IC50 did it give?
The IC50 was 2.16 nM.

With `COc1ccc(S(=O)(=O)N(CC(C)C)CC(O)C(Cc2ccc(N(C)CC3CCCCC3C(=O)Nc3sc4c(c3C(=O)O)CC(C)(C)CC4)cc2)NC(=O)OC2COC3(C)OCCC23)cc1` (stereo not drawn) [Compound I-629] as the molecule, how does the IC50 read?
Its IC50 is 2.35 nM.

Which IC50 does the source give for `COc1ccc(S(=O)(=O)N(CC(C)C)CC(O)C(Cc2ccc(NCC3CC(C)(C)CCC3c3sc4c(c3C(=O)O)CC(C)(C)CC4)cc2)NC(=O)OC2COC3(C)OCCC23)cc1` (stereo not drawn) [Compound I-765] here?
The IC50 was 2.96 nM.

Which IC50 does the source give for `COc1ccc(S(=O)(=O)N(CC(C)C)CC(O)C(Cc2ccc(NCc3occc3-c3sc4c(c3C(=O)O)CC(C)(C)CC4)cc2)NC(=O)OC2COC3(C)OCCC23)cc1` (stereo not drawn) [Compound I-276] here?
Its IC50 is 2.16 nM.

`CC(C)CN(CC(O)C(Cc1ccc(OCc2ccccc2-c2sc3c(c2C(=O)O)CC(C)(C)CC3)cc1)NC(=O)OC1COC2(C)OCCC12)S(=O)(=O)c1ccc2nc(NC3CCN(C4CCCC4)CC3)sc2c1` (stereo not drawn) [Compound I-792] was tested. Which IC50 did it give?
Its IC50 is 25 nM.
